Data reported in US20240116937A1, “Polymorph of (1S,2S,3S,5R)-3-((6-(difluoromethyl)-5-fluoro-1,2,3,4-tetrahydroisoquinolin-8-yl)oxy)-5-(4-methyl-7H-pyrrolo[2,3-D]pyrimidin-7-yl)cyclopentane-1,2-diol” (Pfizer Inc., priority 2020, published 2024).

Assay: Hygroscopicity: % mass change (ref dry mass) versus RH, free base compared to hydrochloride salt
Format: physicochemical
Source text: Hygroscopicity of Free Base (1S,2S,3S,5R)-3-((6-(difluoromethyl)-5-fluoro-1,2,3,4-tetrahydroisoquinolin-8-yl)oxy)-5-(4-methyl-7H-pyrrolo[2,3-d]pyrimidin-7-yl)cyclopentane-1,2-diol Compared to Crystalline (1S,2S,3S,5R)-3-((6-(difluoromethyl)-5-fluoro-1,2,3,4-tetrahydroisoquinolin-8-yl)oxy)-5-(4-methyl-7H-pyrrolo[2,3-d]pyrimidin-7-yl)cyclopentane-1,2-diol hydrochloride salt

SMILES: Cc1ncnc2c1ccn2[C@@H]1C[C@H](Oc2cc(C(F)F)c(F)c3c2CNCC3)[C@@H](O)[C@H]1O [Free Base, (1S,2S,3S,5R)-3-((6-(difluoromethyl)-5-fluoro-1,2,3,4-tetrahydroisoquinolin-8-yl)oxy)-5-(4-methyl-7H-pyrrolo[2,3-d]pyrimidin-7-yl)cyclopentane-1,2-diol]
- physical stability (hygroscopicity) relative to the dihydrochloride salt of WO2017/212385: low hygroscopicity
- % Mass-Ref Dry mass (RH 10): 0.1%
- % Mass-Ref Dry mass (RH 20): 0.3%
- % Mass-Ref Dry mass (RH 30): 0.4%
- % Mass-Ref Dry mass (RH 40): 1.8%
- % Mass-Ref Dry mass (RH 50): 2.0%
- % Mass-Ref Dry mass (RH 60): 2.1%
- % Mass-Ref Dry mass (RH 70): 2.2%
- % Mass-Ref Dry mass (RH 80): 2.2%
- % Mass-Ref Dry mass (RH 90): 2.3%
